# Test results from patent US7166612B2, “Methods for reducing platelet activation platelet aggregaton or thrombosis” (Beth Israel Deaconess Medical Center, priority 2001, dated 2007).
# Test system: platelets
# Test: agonist-induced platelet granule secretion (P-selectin expression, flow cytometry)
# Assay type: cell-based, human
# Settings: for effect on PMA-induced platelet activation: in words
# Method: In order to assay platelet activation by cell surface marker expression, fresh PRP is isolated from donors who have not ingested aspirin for two weeks prior to donation. PRP (40 μl) is incubated with known or suspected inhibitor in DMSO or DMSO alone for 15 min. The sample is then incubated with the indicated agonist (e.g., SFLLR) for 10 min. Following incubation of the sample with the indicated agonist, 10 μl of reaction mixture is transferred to 5 μl of phycoerythrin (PE)-conjugated AC 1.2 anti-P-selectin antibody (for assessment of P-selectin surface expression) or fluorescein isothiocyanate (FITC)-conjugated PAC-1 antibody (for assessment of GPIIbIIIa activation). PBS (500 μl) is added to the sample after a 20 min incubation and the platelets are analyzed immediately by flow cytometry. Flow cytometry can be performed using, for example, a Becton-Dickinson FACSCalibur flow cytometer or its equivalent. Fluorescent channels are set at logarithmic gain. Ten thousand particles are acquired for each sample. A 530/30 band pass filter is used for FL-1 fluorescence. A 585/42 band pass filter is used for FL-2 fluorescence. FITC is measured in the FL-1 channel and PE is measured in the FL-2 channel. Data are analyzed using, for example, CellQuest software on a Macintosh PowerPC, or their equivalents. […]
# Each of the compounds was tested for inhibition of platelet activation in response to the agonists SFLLR (a thrombin mimic), U46619 (a thromboxane A2 mimic), ADP and the phorbol ester PMA.
# Compounds were also tested by flow cytometry for the inhibition of SFLLR-induced GPIIbIIIa activation and P-selectin expression. In these experiments, freshly obtained PRP was prepared from healthy volunteers who had not ingested aspirin for two weeks prior to donation. Forty μl of PRP was incubated with inhibitor in DMSO or DMSO alone for 15 min. The sample was then incubated with the indicated agonist for 10 min. Following incubation of the sample with the indicated agonist, 10 μl of reaction mixture was transferred to 5 μl of PE-conjugated AC1.2 anti-P-selectin antibody (for assessment of P-selectin surface expression) or FITC-conjugated PAC-1 antibody (for assessment of GPIIbIIIa activation). PBS (500 μl) was added to the sample after a 20 min incubation and the platelets were analyzed immediately by flow cytometry. Flow cytometry was performed using a Becton-Dickinson FACSCalibur flow cytometer. Fluorescent channels were set at logarithmic gain. Ten thousand particles were acquired for each sample. A 530/30 band pass filter was used for FL-1 fluorescence. A 585/42 band pass filter was used for FL-2 fluorescence. FITC was measured in the FL-1 channel and PE was measured in the FL-2 channel. Data were analyzed using CellQuest software on a MacIntosh PowerPC.
# Compound was tested for its ability to inhibit SFLLR-, U46619-, ADP-, PMA-, and collagen I-induced platelet α-granule secretion. In these assays, platelets were incubated with increasing doses of compound for 30 minutes. The platelets were then exposed to a maximally stimulatory dose of the indicated agonist. P-selectin surface expression was analyzed by flow cytometry using phycoerythrin-anti-P-selectin to monitor for α-granule secretion.
structure (smiles),measurement,setting,value
"CC1CC(=O)NN=C1c1ccc(N)c([N+](=O)[O-])c1 (stereo not drawn) [6-(4-Amino-3-nitro-phenyl)-5-methyl-4,5-dihydro-2H-pyridazin-3-one]",IC50s for ADP- and collagen-induced granule release less potent than SFLLR/U46619,"ADP, collagen vs SFLLR, U46619",at least 25 fold
same,effect on PMA-induced platelet activation,listed as Structure 8,did not inhibit
same,effect on PMA-induced platelet activation,listed as pyridazinone compound,No inhibition
